In patent publication US7294638B2, “Treatment of ADHD” (H. Lundbeck A/S, priority 2001, dated 2007):

What was measured:
[1] = system: DAT knock-out (KO) mice; conditions: Gainetdinov et al. Science 1999; cited from earlier work
[2] = target: T1, dopamine D4 receptors (Homo sapiens, UniProt P21917); conditions: data in WO 98/28293; cited from earlier work
T1 sequence (P21917 1-419): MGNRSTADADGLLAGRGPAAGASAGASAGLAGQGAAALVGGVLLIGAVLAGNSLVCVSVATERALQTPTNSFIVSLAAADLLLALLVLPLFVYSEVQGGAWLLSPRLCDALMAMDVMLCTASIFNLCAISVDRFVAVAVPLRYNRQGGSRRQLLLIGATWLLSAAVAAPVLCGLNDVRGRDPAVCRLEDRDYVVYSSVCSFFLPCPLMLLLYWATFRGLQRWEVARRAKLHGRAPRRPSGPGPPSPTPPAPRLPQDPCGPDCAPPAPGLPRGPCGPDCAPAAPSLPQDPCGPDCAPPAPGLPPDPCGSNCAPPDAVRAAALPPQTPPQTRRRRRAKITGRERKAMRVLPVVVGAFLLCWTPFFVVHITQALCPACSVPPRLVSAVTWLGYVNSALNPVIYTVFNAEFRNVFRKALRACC

[3] = clinical; Barrickman et al. 1991; cited from earlier work
[4] = system: DAT knock-out (KO) mice; assay: DAT-KO mice model of ADHD (hyperactivity); assay type: in vivo; conditions: animal model of ADHD
Excerpt: A very useful animal model of ADHD is the DAT knock-out (KO) mice (Gainetdinov et al. Science 1999, 283, 397-401).
The compound, (S)-(+)-3-[1-[2-(1-acetyl-2,3-dihydro-1H-indol-3-yl)ethyl]-1,2,3,6-tetrahydropyridin-4-yl]-6-chloro-1H-indole, has been tested in the DAT-KO mice, an animal model which have many behaviour patterns and responses to psychostimulants in common with individuals with ADHD (Gainetdinov et al. Science 1999, 283, 397-401).

In the case of `CC(N)Cc1ccccc1` (stereo not drawn) [amphetamine], the “reversal of hyperactivity in DAT-KO mice” value [1] is given as “can be reversed”.

In the case of `N[C@@H](Cc1c[nH]c2ccccc12)C(=O)O` [L-tryptophan], the “reversal of hyperactivity in DAT-KO mice” value [1] is listed as “counteract the hyperactivity”.

In the case of `CC(=O)N1CC(CCN2CC=C(c3c[nH]c4cc(Cl)ccc34)CC2)c2ccccc21` (racemic) [3-[1-[2-(1-acetyl-2,3-dihydro-1H-indol-3-yl)ethyl]-1,2,3,6-tetrahydropyridin-4-yl]-6-chloro-1H-indole], the “dopamine D4 ligand potency” value [2] is listed as “potent dopamine D4 ligand”.

For `CNCCC(Oc1ccc(C(F)(F)F)cc1)c1ccccc1` (stereo not drawn) [fluoxetine], the “reversal of hyperactivity in DAT-KO mice” value [1] is given as “counteract the hyperactivity” and the “reducing symptoms of ADHD” value [3] is given as “effective in reducing symptoms of ADHD”.

In the case of `N[C@@H](Cc1c[nH]c2ccc(O)cc12)C(=O)O` [5-hydroxytryptophan], the “reversal of hyperactivity in DAT-KO mice” value [1] is given as “counteract the hyperactivity”.

In the case of `COC(=O)C(c1ccccc1)C1CCCCN1` (stereo not drawn) [methylphenidate], the “reversal of hyperactivity in DAT-KO mice” value [1] is listed as “can be reversed”.

For `c1ccc2nc(N3CCNCC3)ccc2c1` [quipazine], the “reversal of hyperactivity in DAT-KO mice” value [1] is listed as “counteract the hyperactivity”.

In the case of `CC(=O)N1C[C@@H](CCN2CC=C(c3c[nH]c4cc(Cl)ccc34)CC2)c2ccccc21` [(S)-(+)-3-[1-[2-(1-acetyl-2,3-dihydro-1H-indol-3-yl)ethyl]-1,2,3,6-tetrahydropyridin-4-yl]-6-chloro-1H-indole], the “effect in the DAT-KO mice model” value [4] is reported as “have effect in this model”.
